Numbered stars: 1 amine (or outer) side, 2 acyl side, 3 side chain; on linkers, the order of the positions; unused ones are H or OH. Bridge positions count the residues as written; N and C are the ends. Square brackets hold non-standard residues; d marks the D form. Peptide text beside a SMILES is read from it. * marks the point of attachment. hPhe(3-Cl-4-CF3) = N[C@@H](CCc1ccc(C(F)(F)F)c(Cl)c1)C(=O)O; hPhe(3-F,4-CF3) = N[C@@H](CCc1ccc(C(F)(F)F)c(F)c1)C(=O)O; NMePhe(4-CF3) = CN[C@@H](Cc1ccc(C(F)(F)F)cc1)C(=O)O; 3Oxa8azabicyclo(3.2.1)octane = C1CC2COCC1N2*; NMePhe(3-Cl) = CN[C@@H](Cc1cccc(Cl)c1)C(=O)O; NMePhe(4-Cl) = CN[C@@H](Cc1ccc(Cl)cc1)C(=O)O; X116 = O=C([C@H](CCc1cccc(F)c1)N[*:1])[*:2]; X61 = O=C(CN(CCCN1CCC(F)(F)CC1)[*:1])[*:2]; NMedβ3hAla = C[C@H](CC(=O)[*:2])N(C)[*:1]; NMeGly(cPent) = CN[C@H](C(=O)O)C1CCCC1; NMeCha = CN[C@@H](CC1CCCCC1)C(=O)O; Ala(cPr) = N[C@@H](CC1CC1)C(=O)O; Hyp = O=C(O)[C@@H]1C[C@@H](O)CN1; NMeAhp(2) = CCCCC[C@H](NC)C(=O)O; NMeChg = CN[C@H](C(=O)O)C1CCCCC1; NMeF = CN[C@@H](Cc1ccccc1)C(=O)O; NMeI = CC[C@H](C)[C@H](NC)C(=O)O; NMeD = CN[C@@H](CC(=O)O)C(=O)O; NMeL = CN[C@@H](CC(C)C)C(=O)O; NMeV = CN[C@H](C(=O)O)C(C)C; d(β3hA) = C[C@@H](N)CC(=O)O; NMeS = CN[C@@H](CO)C(=O)O; NMeA = CN[C@@H](C)C(=O)O; NMeAib = CNC(C)(C)C(=O)O; Piperidide = C1CCN(*)CC1; dNMeA = CN[C@H](C)C(=O)O; Ac5c = NC1(C(=O)O)CCCC1; Aze = O=C(O)[C@@H]1CCN1; Ac4c = NC1(C(=O)O)CCC1; Sar = CNCC(=O)O; Propyl = CCC*
Target: protein-protein interaction between Kras and SOS1 (biotin-tagged human Kras loaded with GDP, His-tagged human SOS1) (Homo sapiens (Human), UniProt P01116, G12D)
Assay: Protein-protein interaction inhibition between Kras and SOS1 (KrasG12D-SOS PPI) using AlphaScreen;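 note: kras produced in E. coli, Ni-coupled donor beads and streptavidin acceptor beads, excitation 680 nm with emission detected at 520–620 nm via singlet oxygen transfer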
Assay type: biochemical
Conditions: not given

**Q.** Which IC50 does the source give for `CC[C@H](C)[C@@H]1NC(=O)[C@H](CC(C)C)N(C)C(=O)C[C@@H](C(=O)N(C)C)N(C)C(=O)[C@H](C2CCCC2)N(C)C(=O)C2(CCCC2)NC(=O)[C@H](CC(=O)N2CCCCC2)N(C)C(=O)[C@H](CCc2ccc(C(F)(F)F)c(Cl)c2)NC(=O)CN(C)C(=O)[C@H](CC2CCCCC2)N(C)C(=O)[C@@H]2CCN2C(=O)[C@H](C)N(C)C1=O` [Compound 2105] ([NMeL]I[NMeA][Aze][NMeCha][Sar][hPhe(3-Cl-4-CF3)][NMeD](Piperidide)[Ac5c][NMeGly(cPent)][NMeD]-NMe2; lactam N-11) here?
**A.** 2.6 nM

Same assay, conditions: AlphaScreen; biotin-tagged human Kras loaded with GDP, His-tagged human SOS1; read-out: KRAS G12D-SOS PPI IC50

**Q.** For `CC[C@H](C)[C@@H]1NC(=O)[C@H](C)N(C)C(=O)C[C@@H](C(=O)N2CCCCC2)N(C)C(=O)[C@H](C(C)C)N(C)C(=O)C2(CCCC2)NC(=O)[C@H](Cc2cccc(Cl)c2)N(C)C(=O)[C@H](CCc2ccc(C(F)(F)F)c(Cl)c2)NC(=O)CN(C)C(=O)[C@H](CC2CCCCC2)N(C)C(=O)CN(C)C(=O)CN(C)C1=O` [Compound 282] ([NMeA]I[Sar][Sar][NMeCha][Sar][hPhe(3-Cl-4-CF3)][NMePhe(3-Cl)][Ac5c][NMeV][NMeD]-Piperidide; lactam N-11), which IC50 is on record?
**A.** 94 nM

**Q.** For `CC[C@H](C)[C@@H]1NC(=O)[C@H](CC(C)C)N(C)C(=O)C[C@@H](C)N(C)C(=O)[C@H](CC(C)C)NC(=O)C(C)(C)N(C)C(=O)[C@H](CC(C)C)NC(=O)[C@H](CCc2ccc(C(F)(F)F)c(Cl)c2)NC(=O)[C@@H](C)N(C)C(=O)[C@H](CC2CCCCC2)N(C)C(=O)CN(C)C(=O)CN(C)C1=O` [Compound 1389] (cyclo(I[Sar][Sar][NMeCha][dNMeA][hPhe(3-Cl-4-CF3)]L[NMeAib]L[NMedβ3hAla][NMeL])), which IC50 is on record?
**A.** 240 nM

**Q.** Which IC50 does the source give for `CC[C@H](C)[C@@H]1NC(=O)[C@H](C)N(C)C(=O)C[C@@H](C)NC(=O)[C@H](CC(C)C)N(C)C(=O)[C@H](Cc2ccccc2)N(C)C(=O)[C@H](CC(C)C)NC(=O)[C@H](CCc2ccc(C(F)(F)F)c(F)c2)NC(=O)CN(C)C(=O)[C@H](Cc2ccc(Cl)cc2)N(C)C(=O)CN(C)C(=O)CN(C)C1=O` [Compound 2093] (cyclo(I[Sar][Sar][NMePhe(4-Cl)][Sar][hPhe(3-F,4-CF3)]L[NMeF][NMeL][d(β3hA)][NMeA])) here?
**A.** 37 nM

**Q.** Which IC50 does the source give for `CC[C@H](C)[C@@H]1NC(=O)[C@H](CC(C)C)N(C)C(=O)C[C@@H](C(=O)N2CCCCC2)N(C)C(=O)[C@H](C2CCCCC2)N(C)C(=O)C2(CCCC2)NC(=O)CN(CCCN2CCC(F)(F)CC2)C(=O)[C@H](CCc2ccc(C(F)(F)F)c(Cl)c2)NC(=O)CN(C)C(=O)[C@H](CC2CCCCC2)N(C)C(=O)CN(C)C(=O)CN(C)C1=O` [Compound 2021] ([NMeL]I[Sar][Sar][NMeCha][Sar][hPhe(3-Cl-4-CF3)][X61][Ac5c][NMeChg][NMeD]-Piperidide; lactam N-11) here?
**A.** 2.8 nM

**Q.** Which IC50 does the source give for `CC(C)C[C@H]1C(=O)N[C@@H](CC2CC2)C(=O)N(C)[C@@H](C)C(=O)N2CC[C@H]2C(=O)N(C)[C@@H](CC2CCCCC2)C(=O)N(C)CC(=O)N[C@@H](CCc2ccc(C(F)(F)F)c(Cl)c2)C(=O)N2CCC[C@H]2C(=O)NC2(CCCC2)C(=O)N(C)[C@@H](C(C)C)C(=O)N[C@H](C)CC(=O)N1C` [Compound 474] (cyclo([Ac5c][NMeV][d(β3hA)][NMeL][Ala(cPr)][NMeA][Aze][NMeCha][Sar][hPhe(3-Cl-4-CF3)]P)) here?
**A.** 280 nM

**Q.** How did the IC50 turn out when `CCCCC[C@H]1C(=O)N[C@@H]([C@@H](C)CC)C(=O)N(C)[C@@H](C)C(=O)N2CC[C@H]2C(=O)N(C)[C@@H](COCCC)C(=O)N(C)CC(=O)N[C@@H](CCc2ccc(C(F)(F)F)c(Cl)c2)C(=O)N2CCC[C@H]2C(=O)NC2(CCCC2)C(=O)N(C)[C@@H](C2CCCC2)C(=O)N(C)[C@H](C(=O)N2C3CCC2COC3)CC(=O)N1C` [Compound 622] ([NMeAhp(2)]I[NMeA][Aze][NMeS](Propyl)[Sar][hPhe(3-Cl-4-CF3)]P[Ac5c][NMeGly(cPent)][NMeD]-{3Oxa8azabicyclo(3.2.1)octane}; lactam N-11) was run?
**A.** 1.7 nM

**Q.** With `CC[C@H](C)[C@@H]1NC(=O)[C@H](C)N(C)C(=O)C[C@@H](C(=O)N2CCCCC2)N(C)C(=O)[C@H](C(C)C)N(C)C(=O)C2(CCCC2)NC(=O)[C@@H]2CCCN2C(=O)[C@H](CCc2cccc(F)c2)NC(=O)CN(C)C(=O)[C@H](CC2CCCCC2)N(C)C(=O)[C@@H]2CCN2C(=O)[C@H](C)N(C)C1=O` [Compound 685] ([NMeA]I[NMeA][Aze][NMeCha][Sar][X116]P[Ac5c][NMeV][NMeD]-Piperidide; lactam N-11) as the molecule, how does the IC50 read?
**A.** 130 nM

**Q.** Which IC50 does the source give for `CCO[C@@H]1C[C@H]2C(=O)NC3(CCC3)C(=O)N(C)[C@@H]([C@@H](C)CC)C(=O)N(C)[C@H](C)CC(=O)N(C)[C@@H](CC(C)C)C(=O)N[C@@H]([C@@H](C)CC)C(=O)N(C)[C@@H](C)C(=O)N3CC[C@H]3C(=O)N(C)[C@@H](Cc3ccc(C(F)(F)F)cc3)C(=O)N(C)CC(=O)N[C@@H](CCc3ccc(C(F)(F)F)c(Cl)c3)C(=O)N2C1` [Compound 99] (cyclo([Ac4c][NMeI][NMedβ3hAla][NMeL]I[NMeA][Aze][NMePhe(4-CF3)][Sar][hPhe(3-Cl-4-CF3)][Hyp](Et))) here?
**A.** 2.9 nM

— patent US20240148821A1, “PHARMACEUTICAL USE OF CYCLIC PEPTIDE COMPOUND” (CHUGAI SEIYAKU KABUSHIKI KAISHA, priority 2021, published 2024)
